Experiment: Stability of the product during purification (sensitivity to methanol)
Type: physicochemical
Conditions: particularly at a pH below 6

CC=C(C)C=C(C)C1C(C)=CC2(C)CC(C)CCC2C1C(=O)C1=CC(O)(Cc2ccccc2)C(=O)N1 (stereo not shown) [Structural Formula I]
instability of the product / sensitivity to methanol: sensitivity to methanol particularly at a pH below 6
